Measured values taken from the supplement of paper PMC13380429.

Tests used:
Conditions in all cases: 72 h
Caco-2 [1] = test: cell viability relative to DMSO; higher = less toxic
Calu-3 [2] = test: as above
HepG2 [3] = test: as above
U2OS [4] = test: as above
Vero E6 [5] = test: as above
Caco-2 [6] = test: relative viability EC50 (midpoint between 100% and the lowest measured viability); higher = less toxic
Calu-3 [7] = test: as above
HepG2 [8] = test: as above
U2OS [9] = test: as above
Vero E6 [10] = test: as above
Caco-2 [11] = test: drug sensitivity score (DSS) for viability; higher = more toxic; extreme values may be limits of the assay
Calu-3 [12] = test: as above
HepG2 [13] = test: as above
U2OS [14] = test: as above
Vero E6 [15] = test: as above

Row | Structure (SMILES) | cell viability (Caco-2 [1]; 1 nM) | cell viability (Caco-2 [1]; 10 nM) | cell viability (Caco-2 [1]; 100 nM) | cell viability (Caco-2 [1]; 1000 nM) | cell viability (Caco-2 [1]; 10000 nM) | cell viability (Calu-3 [2]; 1 nM) | cell viability (Calu-3 [2]; 10 nM) | cell viability (Calu-3 [2]; 100 nM) | cell viability (Calu-3 [2]; 1000 nM) | cell viability (Calu-3 [2]; 10000 nM) | cell viability (HepG2 [3]; 1 nM) | cell viability (HepG2 [3]; 10 nM) | cell viability (HepG2 [3]; 100 nM) | cell viability (HepG2 [3]; 1000 nM) | cell viability (HepG2 [3]; 10000 nM) | cell viability (U2OS [4]; 1 nM) | cell viability (U2OS [4]; 10 nM) | cell viability (U2OS [4]; 100 nM) | cell viability (U2OS [4]; 1000 nM) | cell viability (U2OS [4]; 10000 nM) | cell viability (Vero E6 [5]; 1 nM) | cell viability (Vero E6 [5]; 10 nM) | cell viability (Vero E6 [5]; 100 nM) | cell viability (Vero E6 [5]; 1000 nM) | cell viability (Vero E6 [5]; 10000 nM) | relative viability EC50 (Caco-2 [6]) | relative viability EC50 (Calu-3 [7]) | relative viability EC50 (HepG2 [8]) | relative viability EC50 (U2OS [9]) | relative viability EC50 (Vero E6 [10]) | drug sensitivity score (Caco-2 [11]) | drug sensitivity score (Calu-3 [12]) | drug sensitivity score (HepG2 [13]) | drug sensitivity score (U2OS [14]) | drug sensitivity score (Vero E6 [15])
1 | CC1CCC(NC(=O)N(CCCl)N=O)CC1 (stereo not given) [semustine] | 99.1% | 103% | 104% | 91.1% | 91.7% | 98.5% | 110% | 87% | 97.2% | 99.4% | 96.3% | 108% | 92.3% | 107% | 91.8% | 98.8% | 96.6% | 99.6% | 99.5% | 99.9% | 106% | 99.6% | 105% | 104% | 99.8% | > 10 µM | > 10 µM | > 10 µM | > 10 µM | > 10 µM | 0 | 0 | 0 | 0 | 0
2 | CC1=C(C)C(=O)C(C(CCCCCC(=O)O)c2ccccc2)=C(C)C1=O (stereo not given) [seratrodast] | 91% | 92.7% | 104% | 90.4% | 95.3% | 104% | 91% | 99% | 99.2% | 104% | 98.7% | 98.7% | 101% | 98.1% | 103% | 99.8% | 95.7% | 99.6% | 93.2% | 98.5% | 97.7% | 99.5% | 96.4% | 96.9% | 98.2% | > 10 µM | > 10 µM | > 10 µM | > 10 µM | > 10 µM | 0 | 0 | 0 | 0 | 0
3 | N[C@@H]1CN(c2c(F)cc3c(=O)c(C(=O)O)cn([C@@H]4C[C@@H]4F)c3c2Cl)CC12CC2 [sitafloxacin] | 95.2% | 95.6% | 91.6% | 106% | 97.2% | 98.5% | 94% | 98% | 96.7% | 93.9% | 107% | 101% | 97.5% | 110% | 108% | 104% | 96.3% | 96% | 95.8% | 96.8% | 91.3% | 98% | 91.6% | 99% | 106% | > 10 µM | > 10 µM | > 10 µM | > 10 µM | > 10 µM | 0 | 0 | 0 | 0 | 0
4 | C[C@@H]1CN(Cc2ccc(F)cc2)[C@@H](C)CN1C(=O)c1cc2c(C(=O)C(=O)N(C)C)cn(C)c2cc1Cl [talmapimod] | 103% | 99.2% | 90.4% | 86.4% | 91.8% | 106% | 101% | 99.8% | 92.9% | 100% | 112% | 108% | 100% | 104% | 104% | 106% | 101% | 103% | 96.9% | 90.6% | 96.1% | 103% | 93.5% | 84.6% | 85% | > 10 µM | > 10 µM | > 10 µM | > 10 µM | > 10 µM | 1.5 | 0 | 0 | 0 | 2.1
5 | Cc1ccc2c(c1CCC(=O)O)CC[C@@H](NS(=O)(=O)c1ccc(Cl)cc1)C2 [terutroban] | 93% | 97.4% | 100% | 102% | 92.2% | 93.2% | 85.6% | 92.8% | 105% | 97.7% | 102% | 90.7% | 95.1% | 103% | 96.3% | 97.1% | 96.7% | 94.4% | 99.5% | 93.2% | 96.8% | 97.6% | 95.6% | 94.6% | 95.8% | > 10 µM | > 10 µM | > 10 µM | > 10 µM | > 10 µM | 0 | 0 | 0 | 0 | 0
6 | CN(C)[C@@H]1C(O)=C(C(N)=O)C(=O)[C@@]2(O)C(O)=C3C(=O)c4c(O)cccc4[C@@](C)(O)[C@H]3C[C@@H]12 [tetracycline] | 101% | 88.2% | 98.8% | 97.1% | 93.8% | 99.6% | 106% | 100% | 107% | 108% | 107% | 96.4% | 107% | 108% | 95.4% | 104% | 98.5% | 102% | 95% | 97.2% | 100% | 102% | 100% | 101% | 95.5% | > 10 µM | > 10 µM | > 10 µM | > 10 µM | > 10 µM | 0 | 0 | 0 | 0 | 0
7 | Cn1cnc2c1c(=O)[nH]c(=O)n2C [theobromine] | 99.1% | 110% | 106% | 121% | 104% | 91.3% | 90.3% | 100% | 97.4% | 98.8% | 87.6% | 79.8% | 99.3% | 95.7% | 95.6% | 92.6% | 101% | 95.7% | 97.6% | 100% | 101% | 92.7% | 103% | 98% | 103% | > 10 µM | > 10 µM | > 10 µM | > 10 µM | > 10 µM | 0 | 0 | 0 | 0 | 0
8 | O=c1sn(-c2cccc3ccccc23)c(=O)n1Cc1ccccc1 [tideglusib] | 95.6% | 90.2% | 102% | 98.9% | 110% | 108% | 97.7% | 106% | 99% | 97.2% | 90.7% | 106% | 100% | 98.8% | 103% | 98% | 101% | 103% | 102% | 97% | 97% | 96.8% | 97% | 93.9% | 100% | > 10 µM | > 10 µM | > 10 µM | > 10 µM | > 10 µM | 0 | 0 | 0 | 0 | 0
9 | N#Cc1cn([C@@H]2O[C@H](CO)[C@@H](O)[C@H]2O)c2ncnc(N)c12 [toyocamycin] | 94.4% | 35% | 42.8% | 34.9% | 38.6% | 93% | 73.8% | 27.8% | 14.5% | 9.8% | 89.1% | 50.3% | 8.3% | -0.4% | 0.1% | 94.5% | 56.7% | 9.5% | 2.5% | 1% | 88.1% | 84.4% | 2.2% | 2.8% | 1.8% | 0.0025 µM | 0.0244 µM | 0.0098 µM | 0.0125 µM | 0.0194 µM | 29.7 | 27.7 | 35.6 | 34.2 | 32.6
10 | CC(C)[C@]12O[C@H]1[C@@H]1O[C@]13[C@]1(O[C@H]1C[C@H]1C4=C(CC[C@@]13C)C(=O)OC4)[C@@H]2O [triptolide] | 84.5% | 56.5% | 24.7% | 24.7% | 27.6% | 108% | 71.5% | 25.8% | 34.9% | 34.2% | 79.4% | 30% | 4.6% | 7.7% | 6.2% | 94% | 34.2% | 1.5% | 1.8% | 2.1% | 101% | 55.4% | 1.6% | 5.4% | 5.1% | 0.0058 µM | 0.0121 µM | 0.0036 µM | 0.0063 µM | 0.0108 µM | 29.2 | 27.1 | 39.2 | 38.2 | 35.8
11 | C[C@H](CCC(=O)NCCS(=O)(=O)O)[C@H]1CC[C@H]2[C@@H]3[C@@H](O)C[C@@H]4C[C@H](O)CC[C@]4(C)[C@H]3CC[C@]12C [ursodeoxycholyltaurine] | 103% | 94.9% | 87.4% | 91.8% | 108% | 106% | 93.9% | 100% | 104% | 97% | 94.5% | 96.7% | 85.1% | 97.7% | 96.8% | 97.8% | 97.4% | 98.9% | 97.2% | 98.4% | 105% | 110% | 100% | 101% | 97.2% | > 10 µM | > 10 µM | > 10 µM | > 10 µM | > 10 µM | 0 | 0 | 0 | 0 | 0
